Results from US12188932B2, “Method for high throughput peptide-MHC affinity screening for TCR ligands” (priority 2018, dated 2025).

System: GloResponse NFAT-luc2 Jurkat cells
Settings: T2 loaded with 100 nM peptide, 18 hours
Method: T cell activation assays using GloResponse™ NFAT-luc2 Jurkat cells and peptide loaded T2 target cells were performed according to manufacturer instructions. In short, T2 cells were harvested from continuous cell culture, washed and resuspended in T2 culture medium at a concentration of 3.3×10^6 cells/ml and transferred to 96 well round bottom plates (Corning Costar®, Cat. Nr. 3799). Peptide in DMSO, 0.5% TFA was added to a final concentration of 100 nM and the suspension incubated for 2 to 3 hours at 37° C., 5% CO2. bsTCR formulated in PBS was diluted in T2 culture medium to desired concentration and 25 μl of the respective dilution was distributed to white 96 well flat bottom plates (Brand, Cat. Nr. 781965). […] After the incubation period 75 μl of Bio-Glo™ luciferase reagent was added to each well and the plates incubated for minutes at 300 rpm on a plate shaker in the dark before reading luminescence at a 0.5 second integration time with a Synergy2 plate reader (Biotek). Luminescence as measured in relative light units (RLU) was converted to fold induction for each well by dividing measured RLU through those of control wells.
T2 cells were loaded separately with respective peptides from the positional scanning library at a concentration of 100 nM and subsequently co-incubated with Jurkats and different bsTCR concentrations for 18 hours before readout.

Sequence: ALYNVLAKV
- T cell activation (luminescence fold induction over background): reactive in the reporter assay
